Results published in patent US20190099401A1, “METHOD FOR PROTECTING CORNEAL ENDOTHELIAL CELLS FROM THE IMPACT CAUSED BY AN EYE SURGERY” (priority 2017, published 2019).
Values joined by “and” are separate entries in the source; they are usually repeats but may differ in a detail not shown here. Equal entries are not always repeated.

Tests used:
[1] = tested on: corneal endothelial cells; experiment: Phacoemulsification in patients with low corneal endothelial cell density; format: in vivo; conditions: 28 days four times a day before phacoemulsification, one patient eye
Description: Please refer to the following Table. 1 showing the age and sex of the patients, concentration of ascorbic acid in the ophthalmic composition, cause of low corneal endothelial cell density (ECD), total energy of phacoemulsification, duration time of phacoemulsification, corneal endothelial cell density before and after the phacoemulsification, and the percentage of cell loss. […] The ratio of cell loss after may be down regulated to 6.2±1.9%.

[2] = tested on: retinal pigment epithelial cell line (ARPE19); experiment: Cell experiment: paraquat-induced apoptosis, cell morphology; format: cell-based; conditions: for cell morphology (apoptosis, vesicle formation) / cell morphology (protective effect): FIG. 1
Procedure: (§1) In the present embodiment, retinal pigment epithelial cell line (ARPE19) and corneal endothelial cell line (B4G12) were subjected to the cell experiment. The B4G12 cells were cultured with the cell culture medium comprising Human Endothelial-SFM, 2% of fetal bovine serum (FBS), and 10 ng/ml of basic fibroblast growth factor (bFGF). The culture medium was changed every two days. The ARPE 19 cells were cultured with the cell culture medium comprising Dulbecco's Modified Eagle Medium Nutrient Mixture F-12 (DMEM-F12), 10% of FBS, 0.5% of ampicillin, and 0.125% of gentamycin. The culture medium was changed every two days.
(§2) 2 mM of paraquat was added to the culture medium of the ARPE19 cells, and 0.2 mM of paraquat was added to the culture medium of the B4G12 cells to induce apoptosis of the cells. 0.1, 0.5, 1.0, and 2.0 mM of ascorbic acid were then added respectively to the culture medium of the cells for 5 days and the cell morphologies thereof were shown in FIG. 1. […] Accordingly, the lowest effective concentration of ascorbic acid is 1.0 mM.
(§3) Further, ARPE19 cells and B4G12 cells were divided respectively into four groups, which comprises a control group 1 without added ascorbic acid or paraquat; a control group 2 added with ascorbic acid but without paraquat; a comparative group added with paraquat but without ascorbic acid; and a treatment group added with ascorbic acid and paraquat, wherein 1 mM of ascorbic acid were added to the control groups 2 and treatment groups, 2 mM of paraquat were added to the comparative group and the treatment group of ARPE19 cells, and 0.2 mM of paraquat were added to the comparative group and the treatment group of B4G12 cells.

[3] = tested on: corneal endothelial cell line (B4G12); experiment: as above; format: cell-based; conditions: for cell morphology (apoptosis, vesicle formation) / cell morphology (protective effect): FIG. 1
Procedure: as §1, §2, §3

B4G12 cells = experiment: Oxidative stress test (cellular ROS detection assay kit); format: cell-based; conditions: after 5 days of culturing, FIG. 3
Procedure: (§4) The oxidative stress of ARPE19 and B4G12 cells were tested using cellular ROS detection assay kit (Deep Red Fluorescence, ab186029) after 5 days of culturing. The tested groups were the same as the abovementioned control group 1, control group 2, comparative group, and treatment group. The test results were shown in FIG. 3, wherein the red fluorescent light represented the existence of oxidative stress.

ARPE19 cells = experiment: as above; format: cell-based; conditions: after 5 days of culturing, FIG. 3
Procedure: as §4

[4] = control group 2: 1 mM ascorbic acid without paraquat, FIG. 2
[5] = 1 mM ascorbic acid without paraquat

## O=C1O[C@H]([C@@H](O)CO)C(O)=C1O [ascorbic acid]
[1]; 20 mg/cc ascorbic acid
  Cell lost: 5.6% and 9.3%
  Post-op corneal ECD: 981 cells/mm^2 and 1239 cells/mm^2
[1]; 50 mg/cc ascorbic acid
  Cell lost: 3.6% and 5.3% and 8.6% and 8.0% and 7.6% and 6.2% and 5.5% (2×) and 6.9% and 5.1%
  Post-op corneal ECD: 1355 cells/mm^2 and 983 cells/mm^2 and 1238 cells/mm^2 and 1119 cells/mm^2 and 1249 cells/mm^2 and 1181 cells/mm^2 and 1724 cells/mm^2 and 1112 cells/mm^2 and 1649 cells/mm^2 and 838 cells/mm^2
[2]; 0.1 mM ascorbic acid, 2 mM paraquat, 5 days
  cell morphology (apoptosis, vesicle formation): showed cell apoptosis and vesicle formation
[2]; 0.5 mM ascorbic acid, 2 mM paraquat, 5 days
  cell morphology (apoptosis, vesicle formation): showed cell apoptosis and vesicle formation
[2]; 1.0 mM ascorbic acid, 2 mM paraquat, 5 days
  cell morphology (protective effect): showed the protective effect for the cells
[2]; 2.0 mM ascorbic acid, 2 mM paraquat, 5 days
  cell morphology (protective effect): showed the protective effect for the cells
[2]; 2 mM paraquat, 5 days
  lowest effective concentration: 1.0 mM
[2]; [4]
  cell apoptosis: did not show significant cell apoptosis
[2]; treatment group: 1 mM ascorbic acid + 2 mM paraquat, FIG. 2
  cell apoptosis and cell vesicle generation: cell apoptosis and cell vesicle generation were not significant
[3]; 0.1 mM ascorbic acid, 0.2 mM paraquat, 5 days
  cell morphology (apoptosis, vesicle formation): showed cell apoptosis and vesicle formation
[3]; 0.2 mM paraquat, 5 days
  lowest effective concentration: 1.0 mM
[3]; 0.5 mM ascorbic acid, 0.2 mM paraquat, 5 days
  cell morphology (apoptosis, vesicle formation): showed cell apoptosis and vesicle formation
[3]; 1.0 mM ascorbic acid, 0.2 mM paraquat, 5 days
  cell morphology (protective effect): showed the protective effect for the cells
[3]; 2.0 mM ascorbic acid, 0.2 mM paraquat, 5 days
  cell morphology (protective effect): showed the protective effect for the cells
[3]; control group 2: 1 mM ascorbic acid without paraquat (same in control group 1), FIG. 2
  cell vesicles: only some cell vesicles were generated
[3]; [4]
  cell apoptosis: did not show significant cell apoptosis
[3]; treatment group: 1 mM ascorbic acid + 0.2 mM paraquat, FIG. 2
  cell apoptosis and cell vesicle generation: cell apoptosis and cell vesicle generation were not significant
B4G12 cells; 1 mM ascorbic acid + 0.2 mM paraquat
  oxidative stress (red fluorescence, ROS): sufficiently decrease the oxidative stress caused by paraquat
B4G12 cells; [5]
  oxidative stress (red fluorescence, ROS): did not increase significantly
ARPE19 cells; 1 mM ascorbic acid + 2 mM paraquat
  oxidative stress (red fluorescence, ROS): sufficiently decrease the oxidative stress caused by paraquat
ARPE19 cells; [5]
  oxidative stress (red fluorescence, ROS): did not increase significantly
